According to the NIST ThermoML archive (doi:10.1021/je500804j):

Test: mn = molality of the nth substance listed, in mol/kg
Conditions: 101 kPa, Liquid, Alternating current cell with electrodes

CCCCCCCC[N+](C)(C)CCCCCCCCCCCC[N+](C)(C)CCCCCCCC.[Br-].[Br-] + O
Conditions | electrical conductivity [S/m]
288.15 K, m1 = 0.00524 | 0.0948
288.15 K, m1 = 0.00825 | 0.1292
288.15 K, m1 = 0.01026 | 0.1522
288.15 K, m1 = 0.01325 | 0.1863
288.15 K, m1 = 0.01696 | 0.2286
288.15 K, m1 = 0.01986 | 0.2617
288.15 K, m1 = 0.02257 | 0.2928
288.15 K, m1 = 0.02469 | 0.3169
288.15 K, m1 = 0.0276 | 0.3349
288.15 K, m1 = 0.03026 | 0.3455
288.15 K, m1 = 0.03258 | 0.3547
288.15 K, m1 = 0.03485 | 0.3637
288.15 K, m1 = 0.03697 | 0.3722
288.15 K, m1 = 0.03965 | 0.3828
288.15 K, m1 = 0.0414 | 0.3897
288.15 K, m1 = 0.04287 | 0.3956
288.15 K, m1 = 0.04499 | 0.404
288.15 K, m1 = 0.04668 | 0.4107
288.15 K, m1 = 0.04802 | 0.416
288.15 K, m1 = 0.04996 | 0.4237
288.15 K, m1 = 0.05094 | 0.4276
288.15 K, m1 = 0.05281 | 0.435
288.15 K, m1 = 0.0543 | 0.441
288.15 K, m1 = 0.0552 | 0.4446
288.15 K, m1 = 0.05651 | 0.4497
288.15 K, m1 = 0.05808 | 0.456
288.15 K, m1 = 0.05949 | 0.4616
288.15 K, m1 = 0.06045 | 0.4654
288.15 K, m1 = 0.06136 | 0.469
288.15 K, m1 = 0.06193 | 0.4713
293.15 K, m1 = 0.00394 | 0.05156
293.15 K, m1 = 0.00765 | 0.1034
293.15 K, m1 = 0.01114 | 0.1525
293.15 K, m1 = 0.01444 | 0.1943
293.15 K, m1 = 0.01756 | 0.229
293.15 K, m1 = 0.02051 | 0.2582
293.15 K, m1 = 0.02331 | 0.2806
293.15 K, m1 = 0.02597 | 0.3012
293.15 K, m1 = 0.0285 | 0.316
293.15 K, m1 = 0.03091 | 0.3286
293.15 K, m1 = 0.0332 | 0.3423
293.15 K, m1 = 0.03539 | 0.3542
293.15 K, m1 = 0.03749 | 0.3651
293.15 K, m1 = 0.03949 | 0.3739
293.15 K, m1 = 0.0414 | 0.3836
293.15 K, m1 = 0.04323 | 0.3916
293.15 K, m1 = 0.04499 | 0.4007
293.15 K, m1 = 0.04668 | 0.4081
293.15 K, m1 = 0.0483 | 0.4165
293.15 K, m1 = 0.04986 | 0.4238
293.15 K, m1 = 0.05136 | 0.4302
293.15 K, m1 = 0.05281 | 0.436
293.15 K, m1 = 0.0542 | 0.4419
293.15 K, m1 = 0.05554 | 0.4484
293.15 K, m1 = 0.05683 | 0.4533
293.15 K, m1 = 0.05808 | 0.4587
293.15 K, m1 = 0.05929 | 0.4642
293.15 K, m1 = 0.06045 | 0.4689
293.15 K, m1 = 0.06158 | 0.4733
293.15 K, m1 = 0.06267 | 0.4778
298.15 K, m1 = 0.00394 | 0.04358
298.15 K, m1 = 0.00765 | 0.1152
298.15 K, m1 = 0.01115 | 0.1707
298.15 K, m1 = 0.01445 | 0.2175
298.15 K, m1 = 0.01541 | 0.2303
298.15 K, m1 = 0.01634 | 0.2425
298.15 K, m1 = 0.01727 | 0.2535
298.15 K, m1 = 0.01818 | 0.2637
298.15 K, m1 = 0.01907 | 0.2737
298.15 K, m1 = 0.01995 | 0.2808
298.15 K, m1 = 0.02081 | 0.2903
298.15 K, m1 = 0.02167 | 0.2984
298.15 K, m1 = 0.0225 | 0.306
298.15 K, m1 = 0.02333 | 0.3152
298.15 K, m1 = 0.02414 | 0.3211
298.15 K, m1 = 0.02494 | 0.3283
